Patent US20240261312A1 (priority 2021, published 2024)
“And” between values parts separate entries of the source, which are not always exact repeats. Identical values can stand only once. Like-named read-outs stand apart in the source and are kept apart here.

What was measured:
[1] = cited from earlier work
[2] = cited from earlier work; remark: listed apart in the source
[3] = in horses; cited from earlier work
[4] = in adult dogs; cited from earlier work
[5] = in turkeys; cited from earlier work
[6] = in cats; cited from earlier work
bovine coronavirus (BCV) = type: cell-based; settings: HRT cells, therapeutic
[7] = system: bovine viral diarrhea virus (BVDV); type: cell-based; settings: MDBK cells, 48-h time point
[8] = system: bovine viral diarrhea virus (BVDV); type: cell-based; settings: 30 min preincubation, 0.1 to 1.0 ug/ml oleandrin
rhinovirus = assay: Antiviral activity against rhinovirus; type: cell-based; settings: concentrations and assays employed herein
[9] = system: Human adenovirus (HAdv-C5); assay: Antiviral activity against human adenovirus; type: cell-based
dengue fever virus = assay: Antiviral activity against dengue fever virus; type: cell-based
[10] = system: Omsk hemorrhagic fever virus; type: cell-based
[11] = system: Kyasanur forest disease virus; type: cell-based
[12] = system: Alkhuma hemorrhagic fever virus; type: cell-based
HRT cells = settings: concentrations of up to 1.0 microg/mL
MDBK cells = settings: concentrations of up to 1.0 microg/mL
MARC 145 cells = settings: concentrations of up to 1.0 microg/mL
BT cells = settings: concentrations of up to 1.0 microg/mL
cells = settings: up to concentrations of 1 microg/mL
murine coronavirus = settings: reported; cited from earlier work

SMILES: C[C@H]1O[C@@H](O[C@H]2[C@@H](O)C[C@H](O[C@H]3[C@@H](O)C[C@H](O[C@H]4CC[C@@]5(C)[C@H](CC[C@@H]6[C@@H]5C[C@@H](O)[C@]5(C)[C@@H](C7=CC(=O)OC7)CC[C@]65O)C4)O[C@@H]3C)O[C@@H]2C)C[C@H](O)[C@@H]1O [digoxin]
- half-life ([1]; in calves): 5 to 7 h
- half-life ([1]; in cattle): 7 to 9 h
- half-life ([2]; in ewes and lambs): 13 to 15 h
- half-life ([2]; in sheep): 7 to 8 h
- half-life [3]: 16 to 18 h and 10 to 23 h
- half-life [4]: 4 to 6 h
- half-life [5]: 10 to 12 h
- half-life [6]: 9 to 12 h

SMILES: CO[C@H]1C[C@H](O[C@H]2CC[C@@]3(C)[C@H](CC[C@@H]4[C@@H]3CC[C@]3(C)[C@@H](C5=CC(=O)OC5)[C@@H](OC(C)=O)C[C@]43O)C2)O[C@@H](C)[C@@H]1O [oleandrin]
- concentration range over which efficacious (bovine coronavirus (BCV)): ≥ 0.01 µg/mL
- reduction of viral infectivity relative to control [7]: 98-100%
- inhibition of infectivity of progeny [8]: 85-93%
- antiviral activity (inhibition of viral replication) (rhinovirus): inactive
- antiviral activity [9]: inactive
- antiviral activity (dengue fever virus): inactive
- antiviral activity [10]: inactive
- antiviral activity [11]: inactive
- antiviral activity [12]: inactive
- toxicity to HRT cells (HRT cells): not toxic
- toxicity to MDBK cells (MDBK cells): not toxic
- toxicity to MARC 145 cells (MARC 145 cells): not toxic
- toxicity to BT cells (BT cells): not toxic
- toxicity by release of lactate dehydrogenase (cells): no additional toxicity over control vehicle
- antiviral activity (murine coronavirus): inactive
